Measured values as given in US6737383B1, “Herbicidal oxadiazolidines” (priority 1999, dated 2004).

Key:
[1] = test system: velvetleaf; test: Test B pre/postemergence velvetleaf; type: in vivo, Abutilon theophrasti; details: Preemergence
Summary of the method: (§1)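 Response is a visual 0-to-10 score relative to untreated plants, where 0 means no effect and 10 means complete control, taken twelve to sixteen days after application. Treatments went onto soil at planting and onto foliage of 1- to 4-leaf plants, using a surfactant-containing non-phytotoxic solvent.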

[2] = test system: rape; test: Test B pre/postemergence rape; type: in vivo, Brassica napus; details: Preemergence
Summary of the method: as §1

[3] = test system: blackgrass; test: Test B pre/postemergence blackgrass; type: in vivo, Alopecurus myosuroides; details: Preemergence
Summary of the method: as §1

[4] = test system: wheat; test: Test B pre/postemergence wheat; type: in vivo, Triticum aestivum; details: Preemergence
Summary of the method: as §1

[5] = test system: wild oat; test: Test B pre/postemergence wild oat; type: in vivo, Avena fatua; details: Preemergence
Summary of the method: as §1

[6] = test system: giant foxtail; test: Test B pre/postemergence giant foxtail; type: in vivo, Setaria faberii; details: Preemergence
Summary of the method: as §1

[7] = test system: surinam grass; test: Test B pre/postemergence surinam grass; type: in vivo, Brachiaria decumbens; details: Preemergence
Summary of the method: as §1

[8] = test system: bedstraw; test: Test B pre/postemergence bedstraw; type: in vivo, Galium aparine; details: Preemergence
Summary of the method: as §1

[9] = test system: duck salad; test: Test B flood test duck salad; type: in vivo, Heteranthera limosa
Summary of the method: (§2)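 Read-out is a visual response score from 0 (no effect) to 10 (complete control), assigned by comparison with untreated controls. Treatment was applied at the 2-leaf stage, and plants stayed in the greenhouse for twelve to sixteen days before scoring.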

[10] = test system: morningglory; test: Test B pre/postemergence morningglory; type: in vivo, Ipomoea hederacea; details: Preemergence
Summary of the method: as §1

[11] = test system: purple nutsedge; test: Test B pre/postemergence purple nutsedge; type: in vivo, Cyperus rotundus; details: Preemergence
Summary of the method: as §1

[12] = test system: soybean; test: Test B pre/postemergence soybean; type: in vivo, Glycine max; details: Preemergence
Summary of the method: as §1

[13] = test system: smallflower flatsedge; test: Test B flood test smallflower flatsedge; type: in vivo, Cyperus difformis
Summary of the method: as §2

[14] = test system: cocklebur; test: Test B pre/postemergence cocklebur; type: in vivo, Xanthium strumarium; details: Preemergence
Summary of the method: as §1

[15] = test system: rice; test: Test B flood test rice; type: in vivo, Oryza sativa
Summary of the method: as §2

[16] = test system: pigweed; test: Test B pre/postemergence pigweed; type: in vivo, Amaranthus retroflexus; details: Preemergence
Summary of the method: as §1

[17] = test system: bamyardgrass; test: Test B flood test barnyardgrass; type: in vivo, Echinochloa crus-galli
Summary of the method: as §2

[18] = test system: sugar beet; test: Test B pre/postemergence sugar beet; type: in vivo, Beta vulgaris; details: Preemergence
Summary of the method: as §1

[19] = test system: crabgrass; test: Test B pre/postemergence crabgrass; type: in vivo, Digitaria sanguinalis; details: Preemergence
Summary of the method: as §1

[20] = test system: corn; test: Test B pre/postemergence corn; type: in vivo, Zea mays; details: Preemergence
Summary of the method: as §1

[21] = Rate 62 g/ha, scale of 0 to 10 where 0 is no effect and 10 is complete control
[22] = Rate 125 g/ha, scale of 0 to 10 where 0 is no effect and 10 is complete control
[23] = Rate 250 g/ha, scale 0 (no effect) to 10 (complete control)
[24] = Rate 500 g/ha, scale 0 to 10 (0 no effect, 10 complete control)
[25] = Pre-emergence, Rate 62 g/ha, scale 0 to 10, 0 is no effect, 10 is complete control
[26] = Rate 125 g/ha, Pre-emergence section (flood test species), scale 0 to 10, 0 no effect, 10 complete control
[27] = Rate 250 g/ha, Pre-emergence (flood test species), scale 0 to 10, 0 is no effect, 10 is complete control
[28] = Rate 500 g/ha, Pre-emergence section of Table B, 0 to 10 scale (0 no effect, 10 complete control)

CC(C)N(C(=O)n1oc(=O)n(C(C)C2=NOCC2)c1=O)c1ccc(F)cc1 (racemic) [Compound 721]
1: Rape plant response rating [2, 21] | Morningglory plant response rating [10, 21]
10: Velvetleaf plant response rating [1, 24] | Rape plant response rating [2, 24] | Plant response rating, Blackgrass [3, 22] | Blackgrass plant response rating [3, 23] | Blackgrass plant response rating [3, 24] | Wild oats plant response rating [5, 24] | Plant response rating, Giant foxtail [6, 22] | Giant foxtail plant response rating [6, 23] | Giant foxtail plant response rating [6, 24] | B. signalgrass plant response rating [7, 24] | Plant response rating, Bedstraw [8, 22] | Bedstraw plant response rating [8, 23] | Bedstraw plant response rating [8, 24] | Plant response rating, Redroot pigweed [16, 22] | Redroot pigweed plant response rating [16, 23] | Redroot pigweed plant response rating [16, 24]
2: Plant response rating, Morningglory [10, 22] | Morningglory plant response rating [10, 23] | Cocklebur plant response rating [14, 23] | Cocklebur plant response rating [14, 24]
8: Velvetleaf plant response rating [1, 23] | Wheat plant response rating [4, 24] | Plant response rating, Wild oats [5, 22] | Wild oats plant response rating [5, 23] | Plant response rating, B. signalgrass [7, 22] | B. signalgrass plant response rating [7, 23] | Sugarbeets plant response rating [18, 24] | Corn plant response rating [20, 24]
7: B. signalgrass plant response rating [7, 21] | Soybean plant response rating [12, 24] | Plant response rating, Sugarbeets [18, 22] | Sugarbeets plant response rating [18, 23]
5: Plant response rating, Velvetleaf [1, 22] | Morningglory plant response rating [10, 24] | Corn plant response rating [20, 23]
6: Wild oats plant response rating [5, 21]
0: Velvetleaf plant response rating [1, 21] | Wheat plant response rating [4, 21] | Ducksalad plant response rating [9, 25] | Ducksalad plant response rating [9, 26] | Ducksalad plant response rating [9, 27] | Ducksalad plant response rating [9, 28] | Nutsedge plant response rating [11, 21] | Plant response rating, Nutsedge [11, 22] | Nutsedge plant response rating [11, 23] | Soybean plant response rating [12, 21] | Plant response rating, Soybean [12, 22] | Soybean plant response rating [12, 23] | S. Flatsedge plant response rating [13, 25] | S. Flatsedge plant response rating [13, 26] | S. Flatsedge plant response rating [13, 27] | S. Flatsedge plant response rating [13, 28] | Cocklebur plant response rating [14, 21] | Plant response rating, Cocklebur [14, 22] | Rice plant response rating [15, 25] | Rice plant response rating [15, 26] | Rice plant response rating [15, 27] | Rice plant response rating [15, 28] | Barnyardgrass plant response rating [17, 25] | Barnyardgrass plant response rating [17, 26] | Barnyardgrass plant response rating [17, 27] | Barnyardgrass plant response rating [17, 28] | Corn plant response rating [20, 21]
9: Plant response rating, Rape [2, 22] | Rape plant response rating [2, 23] | Blackgrass plant response rating [3, 21] | Giant foxtail plant response rating [6, 21] | Redroot pigweed plant response rating [16, 21] | Crabgrass plant response rating [19, 21] | Plant response rating, Crabgrass [19, 22] | Crabgrass plant response rating [19, 23] | Crabgrass plant response rating [19, 24]
3: Plant response rating, Wheat [4, 22] | Wheat plant response rating [4, 23] | Bedstraw plant response rating [8, 21] | Nutsedge plant response rating [11, 24] | Sugarbeets plant response rating [18, 21] | Plant response rating, Corn [20, 22]
